The target of this assay is T1, clostridial glutamate dehydrogenase (GDH) ([Clostridium] symbiosum, UniProt P24295).
T1 construct: no tag mentioned
T1 sequence (P24295 2-450): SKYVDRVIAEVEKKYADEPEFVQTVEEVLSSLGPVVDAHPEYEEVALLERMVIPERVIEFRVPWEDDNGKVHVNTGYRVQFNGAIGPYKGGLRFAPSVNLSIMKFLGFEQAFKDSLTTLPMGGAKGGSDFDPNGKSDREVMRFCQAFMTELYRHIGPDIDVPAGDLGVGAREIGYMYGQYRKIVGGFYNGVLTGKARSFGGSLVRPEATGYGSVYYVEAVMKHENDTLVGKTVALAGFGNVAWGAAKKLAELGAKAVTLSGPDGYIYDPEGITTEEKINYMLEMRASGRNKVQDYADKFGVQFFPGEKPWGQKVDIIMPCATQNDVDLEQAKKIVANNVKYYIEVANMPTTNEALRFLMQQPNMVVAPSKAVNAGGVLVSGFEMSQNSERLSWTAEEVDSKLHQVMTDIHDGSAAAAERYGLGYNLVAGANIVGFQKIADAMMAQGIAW
Kind of assay: protection against DTNB inactivation. To be noted: 0.1 M potassium phosphate, pH 7.0, 25°C, 200 μM DTNB, competitive with DTNB at coenzyme site, Kd corrected for DTNB. It is filed as biochemical. From the text: protection against DTNB inactivation on clostridial glutamate dehydrogenase (GDH)

Where two headings read alike, the source gives them in different places.

Consider `NC(=O)C1=CN([C@@H]2O[C@H](COP(=O)(O)OP(=O)(O)OC[C@H]3O[C@@H](n4cnc5c(N)ncnc54)[C@H](O)[C@@H]3O)[C@@H](O)[C@H]2O)C=CC1` [NADH], for which the Kd (read-out: K dNADH) turned out to be 24 ± 1 µM.

With `NC(=O)C1=CN([C@@H]2O[C@H](COP(=O)(O)OP(=O)(O)OC[C@H]3O[C@@H](n4cnc5c(N)ncnc54)[C@H](OP(=O)(O)O)[C@@H]3O)[C@@H](O)[C@H]2O)C=CC1` [NADPH], under “read-out: K dNADPH”, the Kd was determined as 23 ± 1 µM.

For the compound `NC(=O)c1ccc[n+]([C@@H]2O[C@H](COP(=O)(O)OP(=O)(O)OC[C@H]3O[C@@H](n4cnc5c(N)ncnc54)[C@H](O)[C@@H]3O)[C@@H](O)[C@H]2O)c1` [NAD^+], for the setting “read-out: K dNAD+”, the Kd is 335 ± 17 µM.

The values above are taken from PMC2962915, “The –SH Protection Method for Determining Accurate Kd Values for Enzyme-Coenzyme Complexes of NAD^+-Dependent Glutamate Dehydrogenase and Engineered Mutants: Evidence for Nonproductive NADPH Complexes” (Enzyme Research, 2010).
